Source: paper PMC6587507, “Comparison of the metabolism of 10 chemicals in human and pig skin explants” (Journal of Applied Toxicology, 2018)
Like-named read-outs stand apart in the source and are kept apart here. Marks after values point to notes of the source that are not given here.

Key:
pig ear skin explants [1] = test system: pig ear skin explants
Description: (§1) Human abdominal skin was obtained (with consent for research from a commercial supplier [L’Union Clinic, Rangueil hospital and Icelltis, Toulouse, France] with certified ethical procedures) from six male and 34 female healthy donors, 41 ± 11 years of age, undergoing cosmetic surgery. Abdominal skin was kept at 4°C during transports and placed in culture within 3 hours of surgery. Pig ear skin was a waste product of the meat industry (without hot steam treatment) from domestic pigs (female Pietrain breed, 6 months old, 80‐100 kg) obtained from a local slaughterhouse (Montauban, France). Ears were taken from the animals within 5 minutes of slaughter and were kept at 4°C during transport to the laboratory, which lasted a maximum of 2 hours. Pig skin samples were dried and then gently shaved.
(§2) The experiment and the preparation of the culture medium were performed under sterile conditions. Human and pig skin was cut with a dermatome to a thickness of 450 ± 50 μm. Skin punches were seeded dermal side down in polycarbonate Transwell® inserts from Corning Life Sciences (Avon, France; 4.16 cm^2 application area with an 8 μm pore size filter). […] The inserts were placed in a six‐well plate containing 1.5 mL culture medium and the skin explants incubated in a standard incubator at 37°C, under an atmosphere of 5% CO2 and 50 ± 10% relative humidity. The culture medium was Dulbecco's modified Eagle medium without phenol red supplemented with 8 mM L‐glutamine, 2 μg/mL streptomycin/penicillin, 25 ng/mL fungizone and 50 ng/mL gentamycin. Skin explants were incubated for 1 hour before application of the formulation.
(§3) The dosing volume was 10 μL/cm^2. For pig skin metabolism studies, which were carried out before the human skin experiments to ensure the analytics were optimal, 2.4 nmol/cm^2 of each chemical (only the ^14C‐labeled form) was applied on the skin and incubated for 24 hours for the measurement of metabolites in the medium. These tissues were further incubated for a total of 48 hours, with a replacement of the culture medium after 24 hours. This longer incubation time and the standard doses of 2.4 nmol/cm^2 were used to maximize the likelihood of the skin forming metabolites to develop analytical methods. The metabolites profiles in pig and human skin were compared in the medium sample at 24 hours of incubation. The metabolite profiles for the 48‐hour timepoint are not reported here since humans skin metabolism was measured at 24 hours only; however, for completeness, the distribution of radioactivity at the end of both pig (48 hours) and human (24 hours) skin incubations is reported. […] The doses were obtained by mixing radiolabeled and cold chemical. One replicate disc per donor and per dose was used. All chemicals were tested on four donors of pig and human skin, except for 2‐AAF and 4‐amino‐3‐nitrophenol (4‐A‐3‐NP), for which three donors were used. The medium was removed after 24 hours of incubation and stored at −20°C for analysis.
(§4) After centrifugation, a 100 μL aliquot of the extract was counted by liquid scintillation. The pellet was dissolved in 3 mL Soluable (60°C, 24 hours) and then counted by liquid scintillation.
(§5) Analysis of the chemicals and their metabolites in medium after 24 hours of incubation with pig and human skin was measured by radio‐high‐performance liquid chromatography (HPLC) using an HPLC 1100 Series, Agilent and a Flow Scintillation Analyzer, Radiomatic 610 TR, Perkin Elmer (Villebon‐sur‐Yvette, France). […] To confirm that metabolites were the same in pig and human skin, medium samples were co‐injected on the new column. The metabolites were identified by LC‐electrospray ionization‐HRMS (HPLC‐ESI‐HRMS) with a RSLC3000 HPLC system coupled to a LTQ‐Orbitrap XL mass spectrometer (Thermo Scientific). The HPLC analytical conditions for identification and quantification of the metabolites for each chemical are summarized in Supporting information Table S1.

[2] = test system: human abdominal skin explants
Description: as §1, §2, §3, §4, §5

pig ear skin explants [3] = assay: Cutaneous distribution and mass balance of radioactivity in pig skin explants; settings: pig skin
Description: as §1, §2, §3
(§6) At the end of the experiment, the trans‐wells were dismantled and washed with appropriate solvent for each chemical. […] The cotton swabs were placed in 5 mL of appropriate solvent in a scintillation counting flask and placed in a sonicator bath for 20 minutes. Aliquots of 1 mL were counted by liquid scintillation, after addition of 15 mL of scintillation liquid. Tissue culture inserts were washed with 10 mL of appropriate solvent. One aliquot of 1 mL was counted by liquid scintillation, after addition of 15 mL of scintillation liquid. After media removal, wells were washed twice with 1 mL of the appropriate solvent. Washing solutions were counted by liquid scintillation, after addition of 15 mL of scintillation liquid.
(§7) Pig skin explants were digested using 3 mL Soluable (60°C for 24 hours) and counted by liquid scintillation. Skin extraction process was adapted according to the physicochemical properties of each chemical and its potential metabolites.

[4] = test system: human abdominal skin explants; assay: Cutaneous distribution and mass balance of radioactivity in human skin explants; settings: human skin
Description: as §1, §2, §3, §6, §7

[5] = propyl paraben applied to pig skin, 24 h
[6] = propyl paraben applied to human skin, 24 h
[7] = cinnamyl alcohol applied to pig skin, 24 h
[8] = cinnamyl alcohol applied to pig skin, medium 24 h
[9] = cinnamyl alcohol applied to human skin, 24 h
[10] = vanillin applied to pig skin, 24 h
[11] = vanillin applied to human skin, 24 h
[12] = end of incubation (48 h), mean ± SD
[13] = end of incubation (24 h), mean ± SD

In the case of `O=C(O)c1ccc(O)cc1` [X (4‐HBA), 4‐hydroxybenzoic acid], the “Amount of metabolite in the medium after 24 h” value (shortened to “Amount of metabolite”) (pig ear skin explants [1]; [5]) is reported as 9.5 ± 0.6 % Applied dose, the “Amount of metabolite” value (pig ear skin explants [1]; propyl paraben applied to pig skin, 24 h, listed as 4‐hydroxybenzoic acid) is reported as 9.5 % Applied dose and the “Amount of metabolite” value [2, 6] is reported as 42.09 ± 2.8 % Applied dose.
For `O=C(O)c1ccccc1` [B (benzoic acid), benzoic acid], the “Amount of metabolite” value (pig ear skin explants [1]; [7]) was 4.8 ± 1.0 % Applied dose, the “Metabolite as share of the total metabolites” value (from here on “Metabolite as share”) (pig ear skin explants [1]; [8]) was 8 % of the total metabolites and the “Amount of metabolite” value [2, 9] was 0.0 ^* % Applied dose.
With `O=C(O)/C=C/c1ccccc1` [VI (cinnamic acid), cinnamic acid] the “Amount of metabolite” value (pig ear skin explants [1]; [7]) was 9.0 ± 0.4 % Applied dose, the “Metabolite as share” value (pig ear skin explants [1]; [8]) was 15 % of the total metabolites and the “Amount of metabolite” value [2, 9] was 0.8 ± 1.5 % Applied dose.
For `O=c1ccc2ccc(OS(=O)(=O)[O-])cc2o1.[K+]` [HC‐sulfate], the “Amount of metabolite” value (pig ear skin explants [1]) was 2.6 ± 0.9 % Applied dose and the “Amount of metabolite” value [2] was 0.9 ± 0.6 % Applied dose.
In the case of `O=S(=O)(O)Oc1cccc(O)c1` [R‐sulfate], the “Amount of metabolite” value (pig ear skin explants [1]) is reported as 0.5 ± 0.03 % Applied dose and the “Amount of metabolite” value [2] is reported as 8.2 ± 0.1 % Applied dose.
`COc1cc(C(=O)O)ccc1O` [V (vanillic acid), vanillic acid] was tested, and the “Amount of metabolite” value (pig ear skin explants [1]; [10]) was 5.8 ± 0.1 % Applied dose, the “Amount of metabolite” value [2, 11] was 33.5 ± 4.0 % Applied dose and the “Amount of metabolite” value ([2]; vanillin applied to human skin, 24 h, listed as vanillic acid) was 34 % Applied dose.
`O=C(O)/C=C\C(=O)O` [II (maleic acid), maleic acid] was tested, and the “Amount of metabolite” value (pig ear skin explants [1]; [5]) was 5.6 ± 0.3 % Applied dose and the “Amount of metabolite” value [2, 6] was 0.5 ± 0.03 % Applied dose.
For `O=c1ccc2ccc(O)cc2o1` [HC, 7‐hydroxycoumarin], the “Amount of metabolite” value (pig ear skin explants [1]; 7‐EC applied to pig skin, 24 h) was 1.5 ± 0.8 % Applied dose and the “Amount of metabolite” value ([2]; 7‐EC applied to human skin, 24 h) was 1.4 ± 0.4 % Applied dose.
`COc1cc(C=O)ccc1O[C@@H]1O[C@H](C(=O)O)[C@@H](O)[C@H](O)[C@H]1O` [III (vanillin glucuronide), vanillin glucuronide] was tested, and the “Amount of metabolite” value (pig ear skin explants [1]) was 2.9 ± 0.8 % Applied dose.
`O=C(O)[C@H]1O[C@@H](Oc2ccc3ccc(=O)oc3c2)[C@H](O)[C@@H](O)[C@@H]1O` [HC‐glucuronide] was tested, and the “Amount of metabolite” value (pig ear skin explants [1]) was 4.9 ± 0.9 % Applied dose and the “Amount of metabolite” value [2] was 2.2 ± 1.2 % Applied dose.
With `O=Cc1ccc(O)c(O)c1` [IV (Protocatechuic aldehyde), protocatechuic aldehyde] the “Amount of metabolite” value (pig ear skin explants [1]; [10]) was 20.7 ± 1.0 % Applied dose, the “Amount of metabolite” value (pig ear skin explants [1]; vanillin applied to pig skin, 24 h, listed as protocatechuic aldehyde) was 21 % Applied dose and the “Amount of metabolite” value [2, 11] was 2.4 ± 1.1 % Applied dose.
In the case of `O=C(O)C1OC(Oc2cccc(O)c2)C(O)C(O)C1O` (stereo not drawn) [R‐glucuronide], the “Amount of metabolite” value (pig ear skin explants [1]) is reported as 48.6 ± 0.8 % Applied dose and the “Amount of metabolite” value [2] is reported as 33.7 ± 0.6 % Applied dose.
For `O=C(O)CNC(=O)c1ccccc1` [V (benzoic acid‐glycine conjugate), benzoylglycine], the “Amount of metabolite” value (pig ear skin explants [1]; [7]) was 4.4 ± 1.1 % Applied dose and the “Amount of metabolite” value [2, 9] was 1.3 ± 0.1 % Applied dose.
In the case of `Nc1ccc(OS(=O)(=O)O)cc1[N+](=O)[O-]` [4‐A‐3‐NP‐sulfate], the “Amount of metabolite” value (pig ear skin explants [1]) is reported as 1.8 ± 0.3 % Applied dose and the “Amount of metabolite” value [2] is reported as 9.98 ± 2.7 % Applied dose.
In the case of `Cn1c(=O)c2c(ncn2C)n(C)c1=O` [Caffeine], the “% Radioactivity in culture media after 24 h” value (pig ear skin explants [3]; 24 h, 2.4 nmol/cm^2) is reported as 72.0 ± 4.0%, the “Mass balance (% of applied dose at end of incubation)” value (pig ear skin explants [3]; 48 h, 2.4 nmol/cm^2) is reported as 109.2 ± 3.3 % of applied dose and the Skin radioactivity (pig ear skin explants [3]; [12]) is reported as 8.4 ± 0.4 % of the applied dose. For the same compound, the Skin surface radioactivity (pig ear skin explants [3]; [12]) was 8.8 ± 10.6 % of the applied dose, the “% Radioactivity in culture media after 24 h” value ([4]; 24 h) was 81.4 ± 3.3% and the “Mass balance (% of applied dose at end of incubation)” value ([4]; 24 h) was 104.0 ± 0.7 % of applied dose. The Medium radioactivity [4, 13] was 81.4 ± 3.3 % of the applied dose, the Skin radioactivity [4, 13] was 21.8 ± 2.5 % of the applied dose and the Skin surface radioactivity [4, 13] was 0.8 ± 0.8 % of the applied dose.
In the case of hydroxycinnamic acid [I (HCA)], the “Amount of metabolite” value (pig ear skin explants [1]) is reported as 15.7 ± 1.3 % Applied dose, the “Metabolite as share” value (pig ear skin explants [1]) is reported as 27 % of the total metabolites and the “Amount of metabolite” value [2] is reported as 18.0 ± 0.9 % Applied dose. The “Metabolite as share” value [2] was 25 % of the total metabolites.
